The results in this text go back to patent US6624188B1, “Method of treatment with compounds having retinoid-like activity and reduced skin toxicity and lacking teratogenic effects” (Allergan, Inc., priority 1992, dated 2003).

Data set [1] concerns human sebocyte cultures. Put plainly: human sebocyte culture 3H-thymidine incorporation (DNA synthesis, anti-proliferative effect). It is filed as cell-based. Conditions: human sebocytes, 8 days treatment, FIG. 2. An excerpt:
The retinoid like activity of the compounds used in accordance with the method of treatment of the present invention and of the novel compounds of the invention can be confirmed by several assay procedures. An assay involving human sebocyte cultures measures the inhibition of ^3H-thymidine into cells, and thus measures inhibition of DNA synthesis and thus an anti-proliferative effect on sebocyte (i.e. a sebostatic effect). This assay is also considered a specific assay for effectiveness of a compound as a potential anti-acne drug. The test is conducted as follows.
Face-lift or forehead reduction skins from cosmetic surgeries were used as sources of human sebaceous gland cells (sebocytes).
Isolated sebocytes were plated in type 1 collagen coated-dishes in DMEM/F12 (1:1) medium supplemented with 8% fetal bovine serum, 2% human serum, 10 ng/ml epidermal growth factor, 1 nM cholera toxin, 1 μM hydrocortisone, and penicillin/streptomycin/amphotericin B. Secondary cultures were prepared by plating Dispase dissociated cells in collagen coated 24-well plates.
Sub-confluent secondary cultures were treated with the test compounds or ethanol vehicle every 2-3 days for 8 days in the above medium from which the total serum concentration was reduced to 2% and hydrocortisone was not included. During the last 6 hours of treatment, the cultures were labeled with 2 μCi/ml ^3H-thymidine. DNA from the cells were extracted by thichoroacetic acid and perchloric acid, and assayed for radioactivity by scintillation counting and for content of DNA by the diphenylamine calorimetric method. The results were expressed as CPM/μg DNA, or as per cent of vehicle control which incorporated about 1,000-1,500 cpm/μg DNA.
(Incorporation of labelled thymidine or its analogues reports DNA synthesis.)

Data set [2] relates to gestating ICR mice. Put plainly: in vivo teratology study, single oral dose on day 11 of gestation. Further details: species or system mouse. The settings on record: female, ICR, mouse, in vivo, 17 day of gestation; for # Litters Normal / Teratogenic Effects % Cleft Palate / Teratogenic Effects % Limb Defects / Teratogenic Effects % Resorbed: po. As for the experimental part:
The methodology of the study is described as follows:
ICR mice (Ace Animals, Boyertown, Pa.) were used. Mature male and virgin female ICR mice were housed in environmentally controlled rooms and acclimatized to a 12 hour light/dark cycle (light cycle 6 A.M. to 6 P.M.) for 2 weeks prior to use. All animals were maintained on Purina Lab Chow and tap water ad libitum. A group of 3-4 females was caged with a single male of proven fertility for 4 hours. Presence of a vaginal plug immediately afterward was regarded as evidence of successful mating, and this day was designated as day 0 of gestation.
[…] All animals were killed by cervical dislocation under mild ether anesthesia on day 17 of gestation. Upon laparotomy, the fetuses were examined for external malformations and weighed; one-half of each litter was then fixed in 95% ethanol and processed for staining of the skeleton by the rapid, alizarin red-S dye method. These preparations were examined under a dissection microscope to screen for abnormalities in the axial and the appendicular skeleton. The other half of each litter was fixed in Bouin's solution and examined by freehand razor serial sectioning to screen for anomalies of the brain, face, and palate.
Differences in dose-related incidence of malformations and resorptions were assessed by computing percentages of affected conceptuses among total implantation sites. The groups were compared statistically by a method based on Student's t-tests of arcs in square root transformed percentages. Values at 0.05 probability level were considered significant. The median effective dose was calculated by logarithmic curve fitting of the dose-response data.

For the compound `C/C(=C\c1ccc(C(=O)O)cc1)c1ccc2c(c1)C(C)(C)CCC2(C)C` [AGN 191183, reference compound], in data set [1], the “inhibition of 3H-thymidine incorporation (effectiveness in sebocyte assay)” value was “not effective”. Also, in data set [2] (0.1 mg/kg), the “litters that exhibited teratogenic effects” value worked out at 100%, the “# Litters Normal” value is recorded as 0, the “Teratogenic Effects % Cleft Palate” value stood at 100% and the “Teratogenic Effects % Limb Defects” value worked out at 100%. In data set [2] (0.1 mg/kg), the “Teratogenic Effects % Resorbed” value came to 30%. In data set [2] (0.01 mg/kg), the “# Litters Normal” value was 2, the “Teratogenic Effects % Cleft Palate” value is given as 29%, the “Teratogenic Effects % Limb Defects” value was 20% and the “Teratogenic Effects % Resorbed” value turned out to be 3%. Moreover, in data set [2] (1 mg/kg), the “# Litters Normal” value is 0 and the “Teratogenic Effects % Resorbed” value was 100%. Further, in data set [2] (10 mg/kg), the “# Litters Normal” value was 0 and the “Teratogenic Effects % Resorbed” value turned out to be 100%.
